Test results: patent US20060211887A1, “Phosphate salts of 6-dimethylaminomethyl-1-(3-methoxyphenyl)-1,3-dihydroxy-cyclohexane compounds” (priority 2005, published 2006)
Structures can show the parent of a compound that is named as a salt.

Legend:
[1] = Storage of the amorphous phosphate salt at 75% r.h.; assay type: physicochemical; details: crystallized after 8 days
Excerpt: The amorphous phosphate salt crystallized after 8 days on storage at a relative atmospheric humidity of 75% r.h. and formed form A.

[2] = DVS (dynamic vapor sorption) experiment on the amorphous phosphate salt; assay type: physicochemical
Excerpt: The amorphous phosphate salt of I crystallized during a DVS (dynamic vapor sorption) experiment at a relative atmospheric humidity of 45% r.h.

Compound | Form formed on storage [1] | Relative atmospheric humidity at which the amorphous salt crystallized [2] [% r.h.] | Stability of the hydrate formed during the desorption ([2]; desorption)
COc1cccc([C@@]2(O)C[C@H](O)CC[C@@H]2CN(C)C)c1 (racemic) [amorphous phosphate salt of I, (1RS,3RS,6RS)-6-dimethylaminomethyl-1-(3-methoxyphenyl)-cyclohexane-1,3-diol] | form A | 45 | 
COc1cccc([C@@]2(O)C[C@H](O)CC[C@@H]2CN(C)C)c1 (racemic) [form A, (1RS,3RS,6RS)-6-dimethylaminomethyl-1-(3-methoxyphenyl)-cyclohexane-1,3-diol] |  |  | remained stable during the desorption
